# In US4839388A, “Prostacyclins and pharmaceuticals containing the same” (Mitsubishi Chemical Industries Limited, priority 1985, dated 1989):
# Legend:
# [1] = test system: Human platelet aggregation; experiment: Platelet aggregation inhibiting effect (human platelet rich plasma, ADP induced, in vitro); assay type: cell-based; conditions: 1 min, human PRP, ADP 2 to 10 μM, 37° C., one minute incubation, read-out: Platelet aggregation inhibiting ratio (IC50)
# Description: Bloods were sampled from healthy male adults (22 to 34 years old) with no administration of drug for 2 weeks or more early in the morning when they were hungry. By use of an injector filled with a 3.8% sodium citrate solution, 50 ml of blood was sampled, immediately stirred by turning upside down and centrifuged at 200 G for 15 minutes. The supernatant was separated as the PRP (platelet rich plasma) and the residue was further subjected to centrifugation at 2000 G for 15 minutes, followed by recovery of the supernatant as PPP (poor platelet plasma) which ws provided for use in the experiment. 250 μl of PRP was placed in a cuvette, 5 μl of an 1% aqueous ethanol solution of the compound of the present invention or an 1% acqueous ethanol solution was added, and incubation was carried out at 37° C. for one minute. Then, an aggregation inducing agent (ADP) was added and the process of aggregation was recorded by Aggregometer (produced by Sienco Co.). As the concentration of ADP, the minimum concentrations of ADP (2 to 10 μM) to give the maximum aggregation for respective platelets were employed. The inhibition percentage of platelet aggregation was calculated by the following formula:
# Inhibition percentage=(A-B/A)×100
# A: Maximum aggregation ratio during addition of solvent ([…] aqueous ethanol solution)
# B: Maximum aggregation ratio during addition of the compound of the present invention.
# The platelet aggregation inhibiting effects of the compounds of the present invention are shown in terms of IC50 values in Table 1.
# [2] = test system: Rat secreted gastric acid; experiment: Antiulcer effect: rat secreted gastric acid inhibiting effect (pylorus ligature); assay type: in vivo, Male wistar strain rats; conditions: 100 μg/kg, s.c., immediately after pylorus ligature; for Inhibition percentage: gastric acid vs. control group; for Amount of gastric acid secreted: gastric juice sampled after 4 hours, solvent 73.6 ± 4.3
# Description: Male wistar strain rats (weighing 250-280 g) were fasted for 18 hours and subjected to peritoneotomy under ether anesthesia for ligature of pylorus, and after 4 hours under abstinence from food and water, gastric juice was sampled. The gastric juice was centrifuged at 3000 rpm for 10 minutes, and then the amount, pH and acidity of the gastric juice were measured. The acidity was measured by titration bymeans of an automatic titrating device (produced by Toa Denpa Kogyo) with a 0.1 N NaOH to pH 7.0 and calculated according to the following formula: [formula]
# The gastric juice secretion inhibition percentage was calculated according to the following formula: [formula] A: Amount of gastric acid excreted in Control group B: Amount of gastric acid excreted in Drug group.
# The drugs to be tested were administrated subcutaneously immediately after pylorus ligature.
SMILES,IC50 [1] [nM],Inhibition percentage [2] [%],Amount of gastric acid secreted [2] [mEq/l]
O=C(O)COCCC1=C[C@H]2C[C@@H](O)[C@H](C#CC(O)C3CCCCC3)[C@H]2C1 (stereo partly shown) [drawing 52],–,0,84.9 ± 10.8
O=C(O)COCCC1=C[C@H]2C[C@@H](O)[C@H](C#CC(O)C3CCCCC3)[C@H]2C1 (stereo partly shown) [drawing 48],4.5,–,–
O=C(O)CCC=CC1=C[C@H]2C[C@@H](O)[C@H](C#CC(O)C3CCCCC3)[C@H]2C1 (stereo partly shown) [drawing 50],–,7.1,68.4 ± 10.1

# Further lines, with some results ahead:
IC50 [1] [nM],SMILES,Inhibition percentage [2] [%],Amount of gastric acid secreted [2] [mEq/l]
12,"O=C(O)CCC/C=C1\C[C@H]2C[C@@H](O)[C@H](/C=C/[C@@H](O)C3CCCC3)[C@H]2C1 [OP-41483, reference compound]",–,–
10,O=C(O)CCC=CC1=C[C@H]2C[C@@H](O)[C@H](C#CC(O)C3CCCCC3)[C@H]2C1 (stereo partly shown) [drawing 46],–,–
